# Assay results taken from patent US20070128217A1 (priority 2003, published 2007).
# Legend:
# [1] = test system: recombinant human anti-SARS-CoV antibody 03-018; format: binding; set-up: Binding of antibody 03-018 to linear peptides of the N protein of SARS-CoV Urbani / Binding of antibody 03-018 to looped/cyclic peptides of the N protein of SARS-CoV Urbani: unit not given here
# [2] = test system: antibodies in sera from SARS patients (sera 1a, 1b, 2, 6, 37, 62, London, SARS-yellow, SARS-green); format: binding, human; set-up: Binding of serum 6 to linear peptides of protein X1 of SARS-CoV Urbani / Binding of serum 37 to linear peptides of protein X1 of SARS-CoV Urbani / Binding of serum 6 to looped/cyclic peptide (PEPSCAN-ELISA) / Binding of serum 37 to looped/cyclic peptide (PEPSCAN-ELISA) / Binding of serum 37 to looped/cyclic peptides of protein X1 of SARS-CoV Urbani / Binding of serum 6 to linear peptides of protein X2 / Binding of serum 37 to linear peptides of protein X2 / Binding of serum 37 to looped/cyclic peptides of protein X2 of SARS-CoV Urbani / Binding of serum 6 to linear peptides of protein M of SARS-CoV Urbani / Binding of serum 37 to linear peptides of protein M of SARS-CoV Urbani / Binding of serum 6 to looped/cyclic peptides of protein M of SARS-CoV Urbani / Binding of serum 37 to looped/cyclic peptides of protein M of SARS-CoV Urbani / Binding of serum 6 to linear peptides of protein X3 of SARS-CoV Urbani / Binding of serum 37 to linear peptides of protein X3 of SARS-CoV Urbani / Binding of serum 37 to looped/cyclic peptides of protein X3 of SARS-CoV Urbani / Binding of serum 6 to linear peptides of protein X4 of SARS-CoV Urbani / Binding of serum 37 to linear peptides of protein X4 of SARS-CoV Urbani / Binding of serum 37 to looped/cyclic peptides of protein X4 of SARS-CoV Urbani / Binding of serum 6 to linear peptides of protein X5 of SARS-CoV Urbani / Binding of serum 37 to linear peptides of protein X5 of SARS-CoV Urbani / Binding of serum 37 to looped/cyclic peptides of protein X5 of SARS-CoV Urbani / Binding of serum 6 to linear peptides of protein N of SARS-CoV Urbani / Binding of serum 37 to linear peptides of protein N of SARS-CoV Urbani / Binding of serum 6 to linear peptide (PEPSCAN-ELISA) / Binding of serum 1a to looped/cyclic peptides of protein N of SARS-CoV Urbani / Binding of serum 1b to looped/cyclic peptides of protein N of SARS-CoV Urbani / Binding of serum 2 to looped/cyclic peptides of protein N of SARS-CoV Urbani / Binding of serum 6 to looped/cyclic peptides of protein N of SARS-CoV Urbani / Binding of serum 37 to looped/cyclic peptides of protein N of SARS-CoV Urbani / Binding of serum 62 to looped/cyclic peptides of protein N of SARS-CoV Urbani / Binding of serum London to looped/cyclic peptides of protein N of SARS-CoV Urbani / Binding of serum SARS-green to looped/cyclic peptides of protein N of SARS-CoV Urbani: unit not given here
# [3] = test system: rabbit serum obtained by immunizing a rabbit with the SARS-CoV strain Frankfurt 1; format: binding; set-up: Binding of a rabbit serum to linear peptides / Binding of a rabbit serum to looped peptides / Rabbit serum linear peptides / Rabbit serum looped peptides / Binding of a rabbit serum to linear peptides of protein N of SARS-CoV Urbani (Rabbit serum linear peptides) / Binding of a rabbit serum to looped/cyclic peptides of protein N of SARS-CoV Urbani (Rabbit serum looped peptides): unit not given here
# [4] = test system: control sera (pooled serum of ten healthy LUMC hospital workers; commercial negative donor pooled serum from the Dutch bloodbank); format: binding, human
Sequence,Binding of antibody 03-018 to linear peptides of the N protein of SARS-CoV Urbani [1],Binding of antibody 03-018 to looped/cyclic peptides of the N protein of SARS-CoV Urbani [1],Binding of serum 1a to linear peptides of protein N of SARS-CoV Urbani [2],Binding of serum 1a to looped/cyclic peptides of protein N of SARS-CoV Urbani [2],Binding of serum 1b to linear peptides of protein N of SARS-CoV Urbani [2],Binding of serum 1b to looped/cyclic peptides of protein N of SARS-CoV Urbani [2],Binding of serum 2 to linear peptides of protein N of SARS-CoV Urbani [2],Binding of serum 2 to looped/cyclic peptides of protein N of SARS-CoV Urbani [2],Binding of serum 6 to linear peptides of protein N of SARS-CoV Urbani [2],Binding of serum 6 to looped/cyclic peptides of protein N of SARS-CoV Urbani [2],Binding of serum 37 to linear peptides of protein N of SARS-CoV Urbani [2],Binding of serum 37 to looped/cyclic peptides of protein N of SARS-CoV Urbani [2],Binding of serum 62 to linear peptides of protein N of SARS-CoV Urbani [2],Binding of serum 62 to looped/cyclic peptides of protein N of SARS-CoV Urbani [2],Binding of serum London to linear peptides of protein N of SARS-CoV Urbani [2],Binding of serum London to looped/cyclic peptides of protein N of SARS-CoV Urbani [2],Binding of serum SARS-green to linear peptides of protein N of SARS-CoV Urbani [2],Binding of serum SARS-green to looped/cyclic peptides of protein N of SARS-CoV Urbani [2],Binding of serum SARS-yellow to linear peptides of protein N of SARS-CoV Urbani [2],Binding of serum SARS-yellow to looped/cyclic peptides of protein N of SARS-CoV Urbani [2],also measured
KKTDEAQPLPQRQKK,0.1,0.2,0.2,0.2,0.1,0.1,0.3,0.1,0.4,0.0,0.7,0.4,0.6,0.2,1.7,0.2,0.2,0.0,1.1,0.0,Binding of a rabbit serum to linear peptides of protein N of SARS-CoV Urbani (Rabbit serum linear peptides) [3]: 0.2; Binding of a rabbit serum to looped/cyclic peptides of protein N of SARS-CoV Urbani (Rabbit serum looped peptides) [3]: 0.0; Control Serum Blood-Bank Looped peptides [4]: 0.4; Control serum Blood-bank linear peptides [4]: 0.7; Control serum LUMC linear peptides [4]: 0.7; Control serum LUMC looped peptides [4]: 0.3
KKDKKKKTDEAQPLP,0.1,0.2,0.3,0.2,0.2,0.1,1.9,2.3,0.2,0.2,0.7,0.3,0.7,0.3,0.6,0.3,0.4,0.1,0.6,0.1,Binding of a rabbit serum to linear peptides of protein N of SARS-CoV Urbani (Rabbit serum linear peptides) [3]: 0.1; Binding of a rabbit serum to looped/cyclic peptides of protein N of SARS-CoV Urbani (Rabbit serum looped peptides) [3]: 0.2; Control Serum Blood-Bank Looped peptides [4]: 0.5; Control serum Blood-bank linear peptides [4]: 0.7; Control serum LUMC linear peptides [4]: 0.6; Control serum LUMC looped peptides [4]: 0.4
